Results taken from article PMC7984888, “Inhibitory Activity of Pyrroloisoxazolidine Derivatives against Chlamydia trachomatis” (BioMed Research International, 2021).

Legend:
[1] = test system: C. trachomatis L2; experiment: Period incubation assay; assay type: cell-based, Chlamydia trachomatis; conditions: progeny EBs at 36 hpi; for Inhibitory effect, treated at 0-2 h: 32 μM, 0-2 h period; for Production of infectious progenies, compound added during the 12-24 h period: 2, 8 or 32 μM
Description: HeLa cells seeded in 48-well plate were infected with C. trachomatis L2 at an MOI of 0.2 and treated with 2, 8, or 32 μM of compound during 0-2, 2-12, 12-24, and 24-36 h period. At 36 hpi, the production of infectious progeny EBs and percent inhibition data were determined as above.  Figure 7 Period incubation assay. (a) HeLa cells infected with C. trachomatis L2 were treated with 2, 8, or 32 μM individual compound for indicated times. The production of progeny EBs was determined at 36 hpi. (b–d) Percent inhibition of progeny EBs was calculated based on data in compound-treated samples relative to DMSO-treated control. Data are presented as mean ± SD of three independent assays.

[2] = test system: C. trachomatis L2; experiment: Later treatment assay; assay type: cell-based, Chlamydia trachomatis; conditions: 2, 8 or 32 μM, progeny EBs at 36 hpi, compared with 0 hpi sample
Description: HeLa cells seeded in 48-well plate were infected with C. trachomatis L2 at an MOI of 0.2 and were treated with 2, 8, or 32 μM of compound at 0, 2, 12, and 24 hpi. At 36 hpi, cells were collected, and the production of infectious progeny EBs was determined as described above. Percent inhibition was calculated based on progeny EB count in compound-treated samples relative to DMSO-treated negative control.  Figure 5 Later treatment assay. (a) HeLa cells infected with C. trachomatis L2 were treated with 2, 8, or 32 μM individual compound at 0, 2, 12, or 24 hpi. The production of progeny EBs was determined at 36 hpi. (b–d) Percent inhibition of progeny EBs was calculated based on data in compound-treated samples relative to DMSO-treated control. Data are presented as mean ± SD of three independent assays. ∗∗p < 0.01, compared with each 0 hpi positive control sample by Student's t-tests.

[3] = test system: Uninfected HeLa cells; experiment: Host cell cytotoxicity (morphology, nuclear integrity, cell count); assay type: cell-based; conditions: 48 h, Evans blue, DAPI, cell counting
Description: Uninfected HeLa cells were cultured with indicated concentration of individual compound or 0.5% DMSO. Forty-eight hours later, cells were fixed with methanol and stained with Evans blue for morphology or DAPI for nuclear integrity. Otherwise, at 48 h later, cells were detached and enumerated by a hemacytometer.  Figure 2 Lack of cytotoxicity of compounds 1 and 2 on HeLa cells. Uninfected HeLa cells were cultured with medium containing various concentrations of individual compound or 0.5% DMSO for 48 h. (a) The cellular morphology was stained with Evans blue, and cell nucleus was stained with DAPI. (b) The cells were enumerated by a hemacytometer. Data are presented as mean ± SD of three independent assays.

[4] = test system: C. trachomatis L2; experiment: Inclusion body immunofluorescence staining; assay type: cell-based, Chlamydia trachomatis; conditions: for Inclusions at the highest concentration: 32 μM, C. trachomatis L2, HeLa cells, 36 hpi; for Formation (number) and growth (size) of C. trachomatis L2 inclusions: HeLa cells, MOI 0.2, 36 hpi, compared with 0.5% DMSO
Description: Cell monolayers seeded onto coverslips in a 24-well plate were infected with C. trachomatis at a multiplicity of infection (MOI) of 0.2 inclusion-forming units (IFU) per cell. Unless noted, individual compound was added into culture medium at indicated concentrations simultaneously at the time of inoculation. 0.5% DMSO was used as negative control and 11.25 μM tetracycline (Sigma-Aldrich) as positive control. For C. trachomatis D, an additional centrifugation (900 × g at room temperature for 1 h) was applied to facilitate the infection. At 36 hours postinfection (hpi), infected cells were fixed by precooled methanol and then subjected to sequential staining processed with a primary antibody and a FITC-conjugated secondary antibody. Evans blue was used as cytoplasm counterstain. Images were shot by an Olympus IX51 fluorescence microscope. […] At the highest concentration of 32 μM, inclusions were few and tiny, analogous to the positive control tetracycline (final concentration, 11.25 μM). In addition, the reduction on the production of progeny EBs was consistent with that of the inclusion number and size (Figure 1(b)). The direct inhibitory effect was also analyzed for C. trachomatis D. Happened as expected, changes in inclusion size and number and the progeny production that response to both chemicals are highly similar to those observed for C. trachomatis L2, with slightly weaker effect (Figures 1(a) and 1(c)).  Figure 1 Inhibition effect of compounds 1 and 2 on C. trachomatis. HeLa cells were infected with C. trachomatis L2 or D at an MOI of 0.2 in the presence of 0.5% DMSO, 11.25 μM tetracycline, or various concentrations of individual compound. Cells were either fixed or lysed for determination of infectious progeny EBs at 36 hpi. (a) Representative immunofluorescence microscopy images (scale bar = 100 μm). Inclusions were stained with a polyclonal anti-MoPn antibody that cross-reacts with C. trachomatis L2 and D (green), and cells were counterstained with Evans blue (red). (b, c) The percent inhibition of production of infectious progeny EBs was calculated based on data in compound-treated samples relative to DMSO-treated control. Data are presented as mean ± SD of three independent assays.

[5] = test system: C. trachomatis L2; experiment: Host cell pretreatment assay; assay type: cell-based, Chlamydia trachomatis; conditions: 2, 8 and 32 μM, 37°C, 1 h (also 4 h) prior to infection
Description: Cells seeded in 48-well plate were incubated with 2, 8, or 32 μM individual compound at 37°C for indicated times. After twice washing with SPG to remove residual compound, cells were infected with EBs at an MOI of 0.2. At 36 hpi, the inclusion count in each well was determined by immunofluorescence staining as above.
Chlamydia trachomatis has a unique EB/RB biphasic life cycle, which offers the infection steps and the intracellular proliferation period for therapeutic intervention. To explore whether the compounds affected the chlamydial infection steps, the HeLa cells or EBs were pretreated with compound prior to infection, and then the influence on EB entry efficiency was analyzed by counting inclusion numbers. Due to the relative easier for culture and shorter developmental cycle, C. trachomatis L2 is commonly represented as a laboratory model for C. trachomatis in cell culture research and is picked for our subsequent mechanism study.
Figure 3 Host cells were not involved in the compounds' antichlamydial activity. HeLa cells were incubated with 2, 8, or 32 μM compound 1 (a) or 2 (b) at 37°C for 1 or 4 h. After washes, cells were infected with EBs. At 36 hpi, the inclusion was counted as described in “Materials and Methods.” Data are presented as mean ± SD of three independent assays.

For `c1ccc(C2C3CC(c4ccccc4)N(c4ccccc4)C3ON2c2ccccc2)cc1` (centres unmarked) [Compound 1], which “Inhibitory effect, treated at 0-2 h” value [1] is on record?
The value was “weak inhibitory effect”.

And the “Production of infectious progenies, compound added during the 12-24 h period” value [1]?
The value was “significantly inhibited”.

And the “Intracellular chlamydial growth, 2-12 h period treatment” value [1]?
Its value is “partially prevented”.

What about the “Infectious progeny EBs, 24-36 h period incubation” value [1] of the same compound?
Its value is “partially inhibited”.

And the “Antichlamydial activity when chemical was added at 24 hpi” value [2]?
Its value is “dramatically dropped”.

What about the “Antichlamydial activity when chemical was added before 12 hpi” value [2] of the same compound?
Its value is “maintained”.

And the “Cytotoxic activity on host cells (morphology, nuclear integrity, cell proliferation)” value [3]?
Its value is “No substantial cytotoxic activity”.

And the “Inclusions at the highest concentration” value [4]?
Its value is “few and tiny”.

And the “Formation (number) and growth (size) of C. trachomatis L2 inclusions” value [4]?
Its value is “inhibited the formation (number) and growth (size)”.

And the “Formation of chlamydial inclusions after pretreatment of HeLa cells” value [5]?
The value was “did not reduce”.

With `Clc1ccc(N2C(c3ccccc3)CC3C(c4ccccc4)N(c4ccccc4)OC32)cc1` (centres unmarked) [Compound 2] as the compound, how does the “Inhibitory effect, treated at 0-2 h” value [1] read?
Its value is “weak inhibitory effect”.

What about the “Production of infectious progenies, compound added during the 12-24 h period” value [1] of the same compound?
The value was “significantly inhibited”.

What about the “Intracellular chlamydial growth, 2-12 h period treatment” value [1] of the same compound?
Its value is “partially prevented”.

What about the “Infectious progeny EBs, 24-36 h period incubation” value [1] of the same compound?
Its value is “partially inhibited”.

What about the “Antichlamydial activity when chemical was added at 24 hpi” value [2] of the same compound?
The value was “dramatically dropped”.

What about the “Antichlamydial activity when chemical was added before 12 hpi” value [2] of the same compound?
Its value is “maintained”.

And the “Cytotoxic activity on host cells (morphology, nuclear integrity, cell proliferation)” value [3]?
The value was “No substantial cytotoxic activity”.

What about the “Inclusions at the highest concentration” value [4] of the same compound?
Its value is “few and tiny”.

What about the “Formation (number) and growth (size) of C. trachomatis L2 inclusions” value [4] of the same compound?
Its value is “inhibited the formation (number) and growth (size)”.

And the “Formation of chlamydial inclusions after pretreatment of HeLa cells” value [5]?
Its value is “did not reduce”.
